Where a name gives a salt, the structure may show the parent alone.
Key:
[1] = test system: motor activity (locomotion) and sedation behavior of male Swiss albino mice; experiment: Open field test, motor activity (locomotion) and sedation (Example 7); format: in vivo
Procedure: Rationale: The spontaneous locomotor activity in terms of total distance traveled is measured in open field test. Comparatively lower distance traveled would indicate either less motor activity or sedation.
Animal groups: Swiss albino male mice (6-7 weeks old; 25-40 g weight) were distributed in 10 different experimental groups with 12 […] per group as illustrated in Table
Study drugs: The test substances (Dexmedetomidine hydrochloride and latrepirdine dihydrochloride hydrate) were dissolved in 0.9% normal saline which served as the vehicle.
Study design and dosing: Mice were brought to the laboratory and allowed to acclimatize to the environment for at least 7 days. The open field test was done in lighting conditions of 40 lux light. The mice were dosed as per the grouping in Table 10. After a post dose interval of 60 minutes, 4 mice from a group were placed in the open field and the movement was tracked for a period of 30 minutes. Once the trial was over the mice were removed from the open field and the arena was cleaned. Following this, next set of 4 mice were placed in the arena and tracked.
Statistical analysis: The distance travelled for a period of 30 minutes was analyzed in bins of 5 minutes and was compared with that of the vehicle group using one-way ANOVA followed by Dunnett's test. All statistical analyses were performed using Graph pad prism software package (Version 7 or Higher) and p value below 0.05 was considered as significant.

[2] = test system: aggressive behavior of male Swiss albino mice; experiment: Resident intruder task, aggressive behavior (Example 5); format: in vivo; settings: for agitation/aggression in resident mice: mouse, in vivo
Source text: Animal groups: Swiss albino male mice were distributed in 13 different experimental groups with 6-14 mice per group as illustrated in Table 9. Each experimental group was also coded so that the experimenter became unaware of the true experimental group during RI assay.
Rationale: The resident-intruder stress is an ethologically relevant model to examine mechanisms underlying stress-related psychiatric disorders. In male rats, a single resident-intruder exposure activates LC neurons. Considered as a major stress response system, LC-NE activation is critical in maintaining arousal in response to acute stress.
Study drugs: The test substances (Dexmedetomidine hydrochloride, latrepirdine dihydrochloride hydrate and sodium valproate) were dissolved in 0.9% normal saline which served as the vehicle. β-Estradiol was dissolved in 0.9% normal saline.
Study design and dosing: Bilateral ovariectomy surgery was carried out in 3-4 weeks old female Swiss albino mice as per the standard methods (Alagwu and Nneli, 2005). Animals were anesthetized using Avertin (2,2,2-Tribromoethanol) at 250 mg/kg, i.p. and were laid down on the surgery table and fixed with adhesive plaster. A midline incision was made on the dorsal region below the rib and 1 cm lateral to the either side of midline, a small incision was made on fascia to isolate the adipose fat supporting the ovaries. By slowly pulling out the fat tissue, the ovary was identified and excised the following uterine horn ligation with silk sutures. Fascia was covered with sutures and similar procedure was repeated on the other side as well. Superficial skin layers were sutured and gentamicin (80 mg/kg, s.c.) was given as antibiotic and meloxicam (4 mg/kg, s.c.) as analgesic, then povidone iodine was applied on superficial skin layers. Polyethylene glycol (PEG) was applied to prevent drying of eye balls and kept for recovery period of 3 weeks (surgery was carried by a single experimenter). Male Swiss albino mice (25-40 grams, Resident animals) was housed individually i.e., 1 animal/cage with an ovariectomized female Swiss albino mice for a period of three weeks (Isolated habituation). During this habituation period, female mice were treated with β-Estradiol at a dose of 0.2 mg/kg, s.c. Male Swiss albino mice (10-20 grams, Intruder animals) were housed 5 animals/cage for a period of five days (Social habituation). On the day of exposure, animals were brought into the experimental room 60 minutes before starting the experiment, to habituate them to the experimental conditions. […]
Statistical analysis: Data obtained was compared with basal scoring by using Student's paired two tailed t-test. Duration of attack, and latency of attack between the groups was analyzed using One-Way ANOVA followed by Bonferroni's posthoc test. […]

[3] = 1 mg/kg, 3 mg/kg and 10 mg/kg, i.p.

## Cc1ccc2c(c1)c1c(n2CCc2ccc(C)nc2)CCN(C)C1 [latrepirdine dihydrochloride hydrate]
[1]; [3]
  distance traveled: did not show any significant reduction in distance traveled
[2]; [3]
  duration of attack: significantly decreased
[2]
  agitation/aggression in resident mice: decreased agitation/aggression

## Cc1ccc2c(c1)c1c(n2CCc2ccc(C)nc2)CCN(C)C1 [latrepirdine, 2,8-dimethyl-5-[2-(6-methylpyridin-3-yl)ethyl]-3,4-dihydro-1H-pyrido[4,3-b]indole]
[1]; latrepirdine, open field test
  locomotion and sedation: did not cause any reduction in locomotion nor caused sedation
[2]; latrepirdine 10 mg/kg, i.p.
  mean duration of attack: 36.87 s
[2]
  agitation/aggression in resident mice: significantly decreased agitation/aggression in resident mice
